Read-outs that look alike come from different tables or passages of the source.
Molecular target: T1, Human Polymorphonuclear Leukocyte Elastase (Homo sapiens, UniProt P08246)
T1 sequence (P08246 30-267): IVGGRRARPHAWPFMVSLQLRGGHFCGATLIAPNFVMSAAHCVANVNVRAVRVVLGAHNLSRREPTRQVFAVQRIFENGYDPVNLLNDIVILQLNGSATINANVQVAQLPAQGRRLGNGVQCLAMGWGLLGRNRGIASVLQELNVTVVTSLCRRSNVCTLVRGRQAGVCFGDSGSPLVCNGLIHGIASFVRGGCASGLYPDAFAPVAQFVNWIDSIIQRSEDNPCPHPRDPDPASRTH
Experiment: Inhibition of human polymorphonuclear leukocyte elastase via hydrolysis of Boc-AAPAN or Boc-AAPVN
Assay type: biochemical
Settings: second order rate constant for inactivation of the enzyme, read-out: Kobs /[I]
Method: Enzyme Assays for the Inhibition of Human Polymorphonuclear Leukocyte Elastase Via Hydrolysis of N-t-Boc-alanyl-alanyl-prolylalanine-p-nitroanilide (Boc-AAPAN) or […] (Boc-AAPVN) Reagent:
0.05M TES (N-tris[hydroxymethyl]methyl-2-amino-ethanesulfonic acid) Buffer, pH 7.5.
0.2 mM Boc-AAPAN or Boc-AAPVN.
To prepare substrate, the solid was first dissolved in 10.0 ml DMSO. Buffer at pH 7.5 was then added to a final volume of 100 ml.
Crude extract of human polymorphonuclear leukocytes (PMN) containing elastase activity.
Inhibitors (azetidinones) to be tested dissolved in DMSO just before use.
To 1.0 ml of 0.2 mM Boc-AAPAN in a cuvette, 0.01-0.1 ml of DMSO with or without inhibitor was added. After mixing, a measurement was taken at 410 mμ to detect any spontaneous hydrolysis due to presence of test compound. 0.05 Milliliters of PMN extract was then added and the ΔOD/min at 410 mμ was measured and recorded. Beckman model 35 spectrophotometer was used.
Results in Tables I to III were reported as ID50, effective dosage in micrograms per milliliter (μg/ml) for 50% inhibition of the enzyme activity 2 minutes after zero time.
Results were also expressed as Ki, the micromolar concentration of the inhibitor (μM) giving 50% of the control enzyme activity; or as ^k obs/I which is the second order rate constant in per mole per second for inactivation of the enzyme.
The elastase activity in the crude PMN extract may vary from one preparation to another. A control of each new batch is run, and the volume added in the assay procedure is adjusted according to activity.

## CCC[C@@H](NC(=O)N1C(=O)C(CC)(CC)[C@@H]1Oc1ccc(CN2CCN(C(=O)N(C)C)CC2)cc1)c1ccc(C)cc1 [(4S)-3,3-Diethyl-1-[(R)-α-n-propyl-(4-methyl)benzylaminocarbonyl]-4-[(4-((4-dimethylaminocarbonyl)piperazin-1-yl)methyl)phenoxy]azetidin-2-one]
pH 7.5, Table I
  kinact/KI: 1.55e+06 M⁻¹ s⁻¹

## CCC[C@@H](NC(=O)N1C(=O)C(CC)(CC)[C@@H]1Oc1ccc(CN2CCC[C@H]2CO)cc1)c1ccc(C)cc1 [R4+R5=--CH2 CH2 CH2 CH(S--CH2 OH); R6=H]
pH 7.5, Table I
  kinact/KI: 950000 M⁻¹ s⁻¹

## CCC[C@@H](NC(=O)N1C(=O)C(CC)(CC)[C@@H]1Oc1ccc(CN2CCC(O)C2)cc1)c1ccc(C)cc1 (some centres unmarked) [R4+R5=--CH2 CH2 CH(OH)CH2 --; R6=H]
pH 7.5, Table I
  kinact/KI: 1.2e+06 M⁻¹ s⁻¹

## CCC[C@@H](NC(=O)N1C(=O)C(CC)(CC)[C@@H]1Oc1ccc(CN2CCC(O)CC2)cc1)c1ccc(C)cc1 [R4+R5=--CH2 CH2 CH(OH)CH2 CH2 --; R6=H]
pH 7.5, Table I
  kinact/KI: 1.15e+06 M⁻¹ s⁻¹

## CCC[C@@H](NC(=O)N1C(=O)C(CC)(CC)[C@@H]1Oc1ccc(CN2CCC(OC)C2)cc1)c1ccc(C)cc1 (some centres unmarked) [R4+R5=--CH2 CH2 CH(OMe)CH2 --; R6=H]
pH 7.5, Table I
  kinact/KI: 765000 M⁻¹ s⁻¹

## CCC[C@@H](NC(=O)N1C(=O)C(CC)(CC)[C@@H]1Oc1ccc(C(C)N2CCC(OC)C2)cc1)c1ccc(C)cc1 (some centres unmarked) [R4+R5=--CH2 CH2 CH(OMe)CH2 --; R6=Me]
pH 7.5, Table I
  kinact/KI: 1e+06 M⁻¹ s⁻¹

## CCC[C@@H](NC(=O)N1C(=O)C(CC)(CC)[C@@H]1Oc1ccc(CN2CCN(C(C)=O)CC2)cc1)c1ccc(C)cc1 [R4+R5=--CH2 CH2 N(Ac)CH2 CH2 --; R6=H]
pH 7.5, Table I
  kinact/KI: 950000 M⁻¹ s⁻¹

## CCC[C@@H](NC(=O)N1C(=O)C(CC)(CC)[C@@H]1Oc1ccc(CN2CCN(C(=O)c3ccccc3)CC2)cc1)c1ccc(C)cc1 [R4+R5=--CH2 CH2 N(Bz)CH2 CH2 --; R6=H]
pH 7.5, Table I
  kinact/KI: 1.7e+06 M⁻¹ s⁻¹

## CCC[C@@H](NC(=O)N1C(=O)C(CC)(CC)[C@@H]1Oc1ccc(CN2CCN(C(C)C)CC2)cc1)c1ccc(C)cc1 [R4+R5=--CH2 CH2 N(i-Pr)CH2 CH2 --; R6=H]
pH 7.5, Table I
  kinact/KI: 1.2e+06 M⁻¹ s⁻¹

## CCC[C@@H](NC(=O)N1C(=O)C(CC)(CC)[C@@H]1Oc1ccc(CN2CCOCC2)cc1)c1ccc(C)cc1 [R4+R5=--CH2 CH2 OCH2 CH2 --; R6=H]
pH 7.5, Table I
  kinact/KI: 820000 M⁻¹ s⁻¹

## CCC[C@@H](NC(=O)N1C(=O)C(CC)(CC)[C@@H]1Oc1ccc(C(C)N2CCOCC2)cc1)c1ccc(C)cc1 (some centres unmarked) [R4+R5=--CH2 CH2 OCH2 CH2 --; R6=Me]
pH 7.5, Table I
  kinact/KI: 460000 M⁻¹ s⁻¹

## CCC[C@@H](NC(=O)N1C(=O)C(CC)(CC)[C@@H]1Oc1ccc(CCN2CCOCC2)cc1)c1ccc(C)cc1 [R4+R5=--CH2 CH2 OCH2 CH2 --; n=2, (4S)-3,3-Diethyl-1-[(R)-α-n-propyl-(4-methyl)benzylaminocarbonyl]-4-[(4-(2-(4-morpholino))ethyl)phenoxy]azetidin-2-one]
pH 7.5, Table II
  kinact/KI: 600000 M⁻¹ s⁻¹

## CCC[C@@H](NC(=O)N1C(=O)C(CC)(CC)[C@@H]1Oc1ccc(CN2CCSC2)cc1)c1ccc(C)cc1 [R4+R5=--CH2 CH2 SCH2 --; R6=H]
pH 7.5, Table I
  kinact/KI: 940000 M⁻¹ s⁻¹

## CCC[C@@H](NC(=O)N1C(=O)C(CC)(CC)[C@@H]1Oc1ccc(CN2CCSCC2)cc1)c1ccc(C)cc1 [R4+R5=--CH2 CH2 SCH2 CH2 --; R6=H]
pH 7.5, Table I
  kinact/KI: 915000 M⁻¹ s⁻¹

## CCC[C@@H](NC(=O)N1C(=O)C(CC)(CC)[C@@H]1Oc1ccc(CN2CC(C)NC(C)C2)cc1)c1ccc(C)cc1 (some centres unmarked) [R4+R5=--CH2 CHMeNCHMeCH2 --; R6=H]
pH 7.5, Table I
  kinact/KI: 980000 M⁻¹ s⁻¹

## CCC[C@@H](NC(=O)N1C(=O)C(CC)(CC)[C@@H]1Oc1ccc(Cn2ccnc2CC)cc1)c1ccc(C)cc1 [R4+R5=--CHCHNCEt--; R6=H]
pH 7.5, Table I
  kinact/KI: 2.25e+06 M⁻¹ s⁻¹

## CCC[C@@H](NC(=O)N1C(=O)C(CC)(CC)[C@@H]1Oc1ccc(Cn2ccnc2)cc1)c1ccc(C)cc1 [R4+R5=--CHCHNCH--; R6=H]
pH 7.5, Table I
  kinact/KI: 1.6e+06 M⁻¹ s⁻¹

## CCC[C@@H](NC(=O)N1C(=O)C(CC)(CC)[C@@H]1Oc1ccc(Cn2ccnc2C)cc1)c1ccc(C)cc1 [R4+R5=--CHCHNCMe--; R6=H]
pH 7.5, Table I
  kinact/KI: 1.4e+06 M⁻¹ s⁻¹

## CCC[C@@H](NC(=O)N1C(=O)C(CC)(CC)[C@@H]1Oc1ccc(CN2C(C)CCCC2C)cc1)c1ccc(C)cc1 (some centres unmarked) [R4+R5=--CHMeCH2 CH2 CH2 CHMe--; R6=H]
pH 7.5, Table I
  kinact/KI: 1.15e+06 M⁻¹ s⁻¹

## CCC[C@@H](NC(=O)N1C(=O)C(CC)(CC)[C@@H]1Oc1ccc(CN2C(C)CCC2C)cc1)c1ccc(C)cc1 (some centres unmarked) [R4+R5=--CHMeCH2 CH2 CHMe--; R6=H]
pH 7.5, Table I
  kinact/KI: 670000 M⁻¹ s⁻¹

## CCC[C@@H](NC(=O)N1C(=O)C(CC)(CC)[C@@H]1Oc1ccc(C2CCCN2CCOCC)cc1)c1ccc(C)cc1 (some centres unmarked) [R4=CH2 CH2 OEt; R5+R6=--CH2 CH2 CH2 --]
pH 7.5, Table I
  kinact/KI: 1.1e+06 M⁻¹ s⁻¹

## CCC[C@@H](NC(=O)N1C(=O)C(CC)(CC)[C@@H]1Oc1ccc(CN(CCOC)CCOC)cc1)c1ccc(C)cc1 [R4=CH2 CH2 OMe; R5=CH2 CH2 OMe; R6=H]
pH 7.5, Table I
  kinact/KI: 820000 M⁻¹ s⁻¹

## CCC[C@@H](NC(=O)N1C(=O)C(CC)(CC)[C@@H]1Oc1ccc(CN(CC)CCNC(C)=O)cc1)c1ccc(C)cc1 [R4=Et; R5=CH2 CH2 NHAc; R6=H]
pH 7.5, Table I
  kinact/KI: 850000 M⁻¹ s⁻¹

## CCC[C@@H](NC(=O)N1C(=O)C(CC)(CC)[C@@H]1Oc1ccc(CN(CC)CCOCCOC)cc1)c1ccc(C)cc1 [R4=Et; R5=CH2 CH2 OCH2 CH2 OMe; R6=H]
pH 7.5, Table I
  kinact/KI: 1.3e+06 M⁻¹ s⁻¹

## CCC[C@@H](NC(=O)N1C(=O)C(CC)(CC)[C@@H]1Oc1ccc(CN(CC)CCOC(=O)N(C)C)cc1)c1ccc(C)cc1 [R4=Et; R5=CH2 CH2 OCONMe2; R6=H]
pH 7.5, Table I
  kinact/KI: 1.4e+06 M⁻¹ s⁻¹

## CCC[C@@H](NC(=O)N1C(=O)C(CC)(CC)[C@@H]1Oc1ccc(CN(CC)CCOC)cc1)c1ccc(C)cc1 [R4=Et; R5=CH2 CH2 OMe; R6=H, (4S)-3,3-Diethyl-1-[(R)-α-n-propyl-(4-methyl)benzyl-aminocarbonyl]-4-[(4-(2-methoxyethyl)ethylamino-methyl)phenoxy]azetidin-2-one]
pH 7.5, Table I
  kinact/KI: 565000 M⁻¹ s⁻¹

## CCC[C@@H](NC(=O)N1C(=O)C(CC)(CC)[C@@H]1Oc1ccc(C(C)N(CC)CCOC)cc1)c1ccc(C)cc1 (some centres unmarked) [R4=Et; R5=CH2 CH2 OMe; R6=Me]
pH 7.5, Table I
  kinact/KI: 600000 M⁻¹ s⁻¹

## CCC[C@@H](NC(=O)N1C(=O)C(CC)(CC)[C@@H]1Oc1ccc(CN(CC)CCSC)cc1)c1ccc(C)cc1 [R4=Et; R5=CH2 CH2 SMe; R6=H]
pH 7.5, Table I
  kinact/KI: 690000 M⁻¹ s⁻¹

## CCC[C@@H](NC(=O)N1C(=O)C(CC)(CC)[C@@H]1Oc1ccc(CN(CC)C(C)COC)cc1)c1ccc(C)cc1 (some centres unmarked) [R4=Et; R5=CH(Me)CH2 OMe; R6=H]
pH 7.5, Table I
  kinact/KI: 670000 M⁻¹ s⁻¹

## CCC[C@@H](NC(=O)N1C(=O)C(CC)(CC)[C@@H]1Oc1ccc(CCCN(CC)CC)cc1)c1ccc(C)cc1 [R4=Et; R5=Et; n=3]
pH 7.5, Table II
  kinact/KI: 540000 M⁻¹ s⁻¹

## CCC[C@@H](NC(=O)N1C(=O)C(CC)(CC)[C@@H]1Oc1ccc(CNC(C)=O)cc1)c1ccc(C)cc1 [R4=H; R5=Ac; R6=H, (4S)-3,3-Diethyl-1-[(R)-α-(n-propyl)-4-(methyl)benzylaminocarbonyl]-4-[(4-(N-acetyl)aminomethyl)phenoxy]azetidin-2-one]
pH 7.5, Table I
  kinact/KI: 750000 M⁻¹ s⁻¹

## CCC[C@@H](NC(=O)N1C(=O)C(CC)(CC)[C@@H]1Oc1ccc(C(C)NCCO)cc1)c1ccc(C)cc1 (some centres unmarked) [R4=H; R5=CH2 CH2 OH; R6=Me]
pH 7.5, Table I
  kinact/KI: 660000 M⁻¹ s⁻¹

## CCC[C@@H](NC(=O)N1C(=O)C(CC)(CC)[C@@H]1Oc1ccc(C(C)NCCOC)cc1)c1ccc(C)cc1 (some centres unmarked) [R4=H; R5=CH2 CH2 OMe; R6=Me]
pH 7.5, Table I
  kinact/KI: 680000 M⁻¹ s⁻¹

## CCC[C@@H](NC(=O)N1C(=O)C(CC)(CC)[C@@H]1Oc1ccc(CNC(=O)CCN(CC)CC)cc1)c1ccc(C)cc1 [R4=H; R5=COCH2 CH2 N Et2; R6=H]
pH 7.5, Table I
  kinact/KI: 850000 M⁻¹ s⁻¹

## CCC[C@@H](NC(=O)N1C(=O)C(CC)(CC)[C@@H]1Oc1ccc(CNC(=O)CN(C)Cc2ccccc2)cc1)c1ccc(C)cc1 [R4=H; R5=COCH2 N(Me)Bn; R6=H]
pH 7.5, Table I
  kinact/KI: 1.4e+06 M⁻¹ s⁻¹

## CCC[C@@H](NC(=O)N1C(=O)C(CC)(CC)[C@@H]1Oc1ccc(CNC(=O)CN(C)C)cc1)c1ccc(C)cc1 [R4=H; R5=COCH2 NMe2; R6=H, (4S)-3,3-Diethyl-1-[(R)-α-(n-propyl)-4-(methyl)benzyl-aminocarbonyl]-4-[(4-((N,N-dimethyl)aminomethylcarbonyl)aminomethyl)phenoxy]azetidin-2-one]
pH 7.5, Table I
  kinact/KI: 800000 M⁻¹ s⁻¹

## CCC[C@@H](NC(=O)N1C(=O)C(CC)(CC)[C@@H]1Oc1ccc(CNC(=O)Cc2cccnc2)cc1)c1ccc(C)cc1 [R4=H; R5=COCH2-3-pyridyl; R6=H, (4S)-3,3-Diethyl-1-[(R)-α-(n-propyl)-4-(methyl)benzylaminocarbonyl]-4-[(4-((3-pyridyl)methylcarbonyl)aminomethyl)phenoxy]azetidin-2-one]
pH 7.5, Table I
  kinact/KI: 1.25e+06 M⁻¹ s⁻¹

## CCC[C@@H](NC(=O)N1C(=O)C(CC)(CC)[C@@H]1Oc1ccc(CNC(=O)Cc2c[nH]cn2)cc1)c1ccc(C)cc1 [R4=H; R5=COCH2-4-imidazolyl; R6=H, (4S)-3,3-Diethyl-1-[(R)-α-(n-propyl)-4-(methyl)benzylaminocarbonyl]-4-[(4-((4-imidazolyl)methylcarbonyl)aminomethyl)phenoxy]azetidin-2-one]
pH 7.5, Table I
  kinact/KI: 850000 M⁻¹ s⁻¹

From patent publication US5952321A, “Substituted azetidinones as anti-inflammatory and antidegenerative agents” (Merck & Co., Inc., priority 1996, dated 1999)
